One molecule from article PMC3898116, “FGT-1 is the major glucose transporter in C. elegans and is central to aging pathways” (Biochemical Journal, 2013) can be followed below.

This test has as its target T1, hGLUT1 (Homo sapiens, UniProt P11166).
T1 construct: gene SLC2A1; untagged, expressed in Xenopus laevis oocytes from cRNA
T1 sequence (P11166 1-492): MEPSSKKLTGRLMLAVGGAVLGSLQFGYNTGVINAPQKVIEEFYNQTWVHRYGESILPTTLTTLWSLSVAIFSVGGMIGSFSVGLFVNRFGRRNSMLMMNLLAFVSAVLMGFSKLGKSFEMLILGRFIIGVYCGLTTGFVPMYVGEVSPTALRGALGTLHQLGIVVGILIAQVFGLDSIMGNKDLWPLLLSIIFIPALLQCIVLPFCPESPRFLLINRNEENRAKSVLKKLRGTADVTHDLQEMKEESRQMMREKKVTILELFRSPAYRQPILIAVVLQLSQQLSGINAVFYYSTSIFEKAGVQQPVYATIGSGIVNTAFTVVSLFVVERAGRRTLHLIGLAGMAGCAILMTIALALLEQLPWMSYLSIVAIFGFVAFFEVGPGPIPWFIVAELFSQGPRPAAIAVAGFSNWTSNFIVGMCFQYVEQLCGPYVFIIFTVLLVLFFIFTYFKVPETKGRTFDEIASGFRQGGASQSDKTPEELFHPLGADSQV
In words: […]glucose uptake in Xenopus oocytes. The format is cell-based. Particulars: incomplete ND96 buffer, 60 min uptake; labelled compound.

The structures appear in SMILES notation.

On to `OC[C@H]1OC(O)[C@H](O)[C@@H](O)[C@@H]1O` (stereo partly drawn) [D-glucose], for which the “[14C]glucose uptake in Xenopus oocytes” value is listed as “These proteins transport glucose at levels that are comparable with GLUT1 expressed in the same system”.
